These results are taken from publication PMC5218480 (PLoS ONE, 2017).

Each structure is given as a SMILES string.

In the assay the test system is MV-4-11 cells. Briefly: Gene expression microarray analysis (Affymetrix PrimeView) and GSEA. It counts as cell-based, human. More on the design: RFU PODN (11730768_x_at) / Fold change /veh PODN (11730768_x_at) / RFU LINC00158 (11744669_a_at) / Fold change /veh LINC00158 (11744669_a_at) / RFU DUSP10 (11751237_a_at) / Fold change /veh DUSP10 (11751237_a_at) / RFU ID3 (11757404_x_at) / Fold change /veh ID3 (11757404_x_at) / RFU PLEKHG5 (11737974_s_at) / Fold change /veh PLEKHG5 (11737974_s_at) / RFU LRRC4B (11730491_at) / Fold change /veh LRRC4B (11730491_at) / RFU GIMAP4 (11747438_a_at) / Fold change /veh GIMAP4 (11747438_a_at) / RFU KRT8 (11758183_x_at) / Fold change /veh KRT8 (11758183_x_at) / RFU CNN1 (11734310_a_at) / Fold change /veh CNN1 (11734310_a_at) / RFU VPS37D (11726825_at) / Fold change /veh VPS37D (11726825_at) / RFU C10orf10 (11716522_x_at) / Fold change /veh C10orf10 (11716522_x_at) / RFU KIR2DL2 /// KIR2DL4 /// KIR2DL5A /// KIR2DL5B /// KIR2DS1 /// KIR2DS2 /// KIR2DS3 /// KIR2DS4 /// KIR3DL3 /// KIR3DL3 /// KIR3DS1 (11738374_at) / Fold change /veh KIR2DL2 /// KIR2DL4 /// KIR2DL5A /// KIR2DL5B /// KIR2DS1 /// KIR2DS2 /// KIR2DS3 /// KIR2DS4 /// KIR3DL3 /// KIR3DL3 /// KIR3DS1 (11738374_at) / RFU C1QL1 (11718748_at) / Fold change /veh C1QL1 (11718748_at) / RFU TMPRSS4 (11747572_a_at) / Fold change /veh TMPRSS4 (11747572_a_at) / RFU HAMP (11756126_x_at) / Fold change /veh HAMP (11756126_x_at) / RFU RNFT2 (11725882_a_at) / Fold change /veh RNFT2 (11725882_a_at) / RFU NR4A2 (11747474_a_at) / Fold change /veh NR4A2 (11747474_a_at) / RFU ABCC12 (11746883_a_at) / Fold change /veh ABCC12 (11746883_a_at) / RFU TMEM136 (11760407_x_at) / Fold change /veh TMEM136 (11760407_x_at) / RFU CLDN22 /// WWC2 (11732394_at) / Fold change /veh CLDN22 /// WWC2 (11732394_at) / RFU HLA-DPB1 (11760878_x_at) / Fold change /veh HLA-DPB1 (11760878_x_at) / RFU SPINT1 (11716480_a_at) / Fold change /veh SPINT1 (11716480_a_at) / RFU GAP43 (11754022_s_at) / Fold change /veh GAP43 (11754022_s_at) / RFU A4GNT (11735810_at) / Fold change /veh A4GNT (11735810_at) / RFU PRB3 (11715151_x_at) / Fold change /veh PRB3 (11715151_x_at) / RFU TUBB4B (11761932_at) / Fold change /veh TUBB4B (11761932_at) / RFU CAPN14 (11732068_a_at) / Fold change /veh CAPN14 (11732068_a_at) / RFU TMCC2 (11721928_a_at) / Fold change /veh TMCC2 (11721928_a_at) / RFU IRGQ (11745062_a_at) / Fold change /veh IRGQ (11745062_a_at) / RFU FAM174B (11720279_a_at) / Fold change /veh FAM174B (11720279_a_at) / RFU TMPRSS4 (11748680_a_at) / Fold change /veh TMPRSS4 (11748680_a_at) / RFU FAM212B (11763350_a_at) / Fold change /veh FAM212B (11763350_a_at) / RFU PLEKHG5 (11743358_a_at) / Fold change /veh PLEKHG5 (11743358_a_at) / RFU ZSCAN30 (11745921_a_at) / Fold change /veh ZSCAN30 (11745921_a_at) / RFU CMKLR1 (11741424_a_at) / Fold change /veh CMKLR1 (11741424_a_at) / RFU LOC101060620 /// MAPK8IP1 (11723275_at) / Fold change /veh LOC101060620 /// MAPK8IP1 (11723275_at) / RFU SPTSSB (11747773_x_at) / Fold change /veh SPTSSB (11747773_x_at) / RFU PRSS12 (11739890_at) / Fold change /veh PRSS12 (11739890_at) / RFU BIN1 (11741810_x_at) / Fold change /veh BIN1 (11741810_x_at) / RFU WNT11 (11732464_a_at) / Fold change /veh WNT11 (11732464_a_at) / RFU C10orf10 (11716521_a_at) / Fold change /veh C10orf10 (11716521_a_at) / RFU C5orf56 (11738089_at) / Fold change /veh C5orf56 (11738089_at) / RFU CYB561 (11721691_x_at) / Fold change /veh CYB561 (11721691_x_at) / RFU ANKRD19P (11752326_a_at) / Fold change /veh ANKRD19P (11752326_a_at) / RFU OR2T12 /// OR2T33 /// OR2T8 (11738714_s_at) / Fold change /veh OR2T12 /// OR2T33 /// OR2T8 (11738714_s_at) / RFU VCAN (11748164_a_at) / Fold change /veh VCAN (11748164_a_at) / RFU JSRP1 (11732532_at) / Fold change /veh JSRP1 (11732532_at) / RFU KRTAP10-11 (11738290_x_at) / Fold change /veh KRTAP10-11 (11738290_x_at) / RFU MYO3A (11730013_a_at) / Fold change /veh MYO3A (11730013_a_at) / RFU EBF3 (11725865_a_at) / Fold change /veh EBF3 (11725865_a_at) / RFU CAMK2N1 (11719241_x_at) / Fold change /veh CAMK2N1 (11719241_x_at) / RFU C5orf56 (11738088_a_at) / Fold change /veh C5orf56 (11738088_a_at) / RFU OLFML3 (11715873_a_at) / Fold change /veh OLFML3 (11715873_a_at) / RFU LOC100653217 /// NTM (11731650_a_at) / Fold change /veh LOC100653217 /// NTM (11731650_a_at) / RFU MAPK11 (11762145_a_at) / Fold change /veh MAPK11 (11762145_a_at) / RFU FIZ1 (11724087_x_at) / Fold change /veh FIZ1 (11724087_x_at) / RFU OASL (11726364_x_at) / Fold change /veh OASL (11726364_x_at) / RFU SOX15 (11748057_x_at) / Fold change /veh SOX15 (11748057_x_at) / RFU CD79A (11719716_a_at) / Fold change /veh CD79A (11719716_a_at) / RFU HIST1H1D (11736915_at) / Fold change /veh HIST1H1D (11736915_at) / RFU CASKIN2 (11723855_a_at) / Fold change /veh CASKIN2 (11723855_a_at) / RFU LOC730098 (11760151_x_at) / Fold change /veh LOC730098 (11760151_x_at) / RFU OR4N2 (11742367_at) / Fold change /veh OR4N2 (11742367_at) / RFU PRRT2 (11749266_a_at) / Fold change /veh PRRT2 (11749266_a_at) / RFU SNX32 (11753110_a_at) / Fold change /veh SNX32 (11753110_a_at) / RFU CDHR5 (11726645_a_at) / Fold change /veh CDHR5 (11726645_a_at) / RFU RCAN1 (11760418_a_at) / Fold change /veh RCAN1 (11760418_a_at) / RFU FAM167A (11723789_a_at) / Fold change /veh FAM167A (11723789_a_at) / RFU FAM26E (11764081_at) / Fold change /veh FAM26E (11764081_at) / RFU ISYNA1 (11749810_s_at) / Fold change /veh ISYNA1 (11749810_s_at) / RFU ACY1 (11761880_at) / Fold change /veh ACY1 (11761880_at) / RFU 11764098_at / Fold change /veh 11764098_at / RFU SAMD14 (11745864_x_at) / Fold change /veh SAMD14 (11745864_x_at) / RFU NPB (11741838_a_at) / Fold change /veh NPB (11741838_a_at) / RFU TMPRSS6 (11731388_a_at) / Fold change /veh TMPRSS6 (11731388_a_at) / RFU KRTAP10-2 (11738614_at) / Fold change /veh KRTAP10-2 (11738614_at) / RFU ARHGAP8 /// PRR5-ARHGAP8 (11727945_x_at) / Fold change /veh ARHGAP8 /// PRR5-ARHGAP8 (11727945_x_at) / RFU KRTAP5-7 /// NADSYN1 (11734609_at) / Fold change /veh KRTAP5-7 /// NADSYN1 (11734609_at) / RFU RASL12 (11751679_a_at) / Fold change /veh RASL12 (11751679_a_at) / RFU CDKN2B (11736163_a_at) / Fold change /veh CDKN2B (11736163_a_at) / RFU PRF1 (11729649_at) / Fold change /veh PRF1 (11729649_at) / RFU, ZNF638 /// ZNF638-IT1 / Fold change vs veh, ZNF638 /// ZNF638-IT1 / RFU, PANK3 / Fold change vs veh, PANK3 / RFU, SH3YL1 / Fold change vs veh, SH3YL1 / RFU, ZEB2 / Fold change vs veh, ZEB2 / RFU, NRIP1 / Fold change vs veh, NRIP1 / RFU, PTTG1IP / Fold change vs veh, PTTG1IP / RFU, CAPN2 / Fold change vs veh, CAPN2 / RFU, MED14 / Fold change vs veh, MED14 / RFU, SNORA58 / Fold change vs veh, SNORA58 / RFU, C1orf63 / Fold change vs veh, C1orf63 / RFU, LRRFIP1 / Fold change vs veh, LRRFIP1 / RFU, NDUFAF7 / Fold change vs veh, NDUFAF7 / RFU, SLC12A2 / Fold change vs veh, SLC12A2 / RFU, IBTK / Fold change vs veh, IBTK / RFU, ESF1 / Fold change vs veh, ESF1 / Fold change vs veh, TMEM50B / RFU, TAOK1 / Fold change vs veh, TAOK1 / RFU, ACBD3 / Fold change vs veh, ACBD3 / RFU, TMA16 / Fold change vs veh, TMA16 / RFU, RWDD3 / Fold change vs veh, RWDD3 / RFU, BCAT1 / Fold change vs veh, BCAT1 / RFU, EDEM3 / Fold change vs veh, EDEM3 / RFU, TMEM33 / Fold change vs veh, TMEM33 / RFU, WDR75 / Fold change vs veh, WDR75 / RFU, AHCTF1 / Fold change vs veh, AHCTF1 / RFU, TFRC / Fold change vs veh, TFRC / RFU, ZDHHC17 / Fold change vs veh, ZDHHC17 / RFU, NOM1 / Fold change vs veh, NOM1 / RFU, ARL8B / Fold change vs veh, ARL8B / RFU, ZBTB11 / Fold change vs veh, ZBTB11 / RFU, TAMM41 / Fold change vs veh, TAMM41 / RFU, KIAA1704 /// LOC100996395 / Fold change vs veh, KIAA1704 /// LOC100996395 / RFU, ING1 / Fold change vs veh, ING1 / RFU, TRMT61B / Fold change vs veh, TRMT61B / RFU, FUBP3 / Fold change vs veh, FUBP3 / RFU, TP53 / Fold change vs veh, TP53 / RFU, TNKS2 / Fold change vs veh, TNKS2 / RFU, ZFP14 / Fold change vs veh, ZFP14 / RFU, ACTR2 / Fold change vs veh, ACTR2 / RFU, PPP3R1 / Fold change vs veh, PPP3R1 / RFU, PIK3R1 / Fold change vs veh, PIK3R1 / RFU, HNRNPA1 / Fold change vs veh, HNRNPA1 / RFU, RNF170 / Fold change vs veh, RNF170 / RFU, ZNF28 / Fold change vs veh, ZNF28 / RFU, RNGTT / Fold change vs veh, RNGTT / RFU, OGT / Fold change vs veh, OGT / RFU, BRD1 / Fold change vs veh, BRD1 / RFU, MARS / Fold change vs veh, MARS / RFU, ZNF655 / Fold change vs veh, ZNF655 / RFU, FAHD1 / Fold change vs veh, FAHD1 / RFU, BDP1 / Fold change vs veh, BDP1 / RFU, LRRCC1 / Fold change vs veh, LRRCC1 / RFU, ARID1A / Fold change vs veh, ARID1A / RFU, ZNF146 / Fold change vs veh, ZNF146 / RFU, ZNF330 / Fold change vs veh, ZNF330 / RFU, GPN3 / Fold change vs veh, GPN3 / RFU, C9orf123 / Fold change vs veh, C9orf123 / RFU, N4BP2L2 / Fold change vs veh, N4BP2L2 / RFU, ARFIP1 / Fold change vs veh, ARFIP1 / RFU, FAM179B / Fold change vs veh, FAM179B / RFU, BCL10 / Fold change vs veh, BCL10 / RFU, UHRF1BP1L / Fold change vs veh, UHRF1BP1L / RFU, BET1 / Fold change vs veh, BET1 / RFU, CNOT2 / Fold change vs veh, CNOT2 / RFU, ZNF268 / Fold change vs veh, ZNF268 / Fold change vs veh, ZNF507 / RFU, DGCR2 / Fold change vs veh, DGCR2 / RFU, WDSUB1 / Fold change vs veh, WDSUB1 / Fold change vs veh, HSP90B1 /// MIR3652 / RFU, ADSS / Fold change vs veh, ADSS / RFU, GK / Fold change vs veh, GK / RFU, ZNF148 / Fold change vs veh, ZNF148 / RFU, TAF9 / Fold change vs veh, TAF9 / RFU, SLC1A5 / Fold change vs veh, SLC1A5 / RFU, SLMO2 / Fold change vs veh, SLMO2 / RFU, ABCC4 / Fold change vs veh, ABCC4 / RFU, LOC101060439 /// RAP1B / Fold change vs veh, LOC101060439 /// RAP1B / RFU, RFX7 / Fold change vs veh, RFX7 / RFU, GTPBP10 / Fold change vs veh, GTPBP10 / RFU, CNEP1R1 / Fold change vs veh, CNEP1R1 / RFU, BIVM-ERCC5 /// ERCC5 / Fold change vs veh, BIVM-ERCC5 /// ERCC5 / RFU, ILF3 / Fold change vs veh, ILF3 / RFU 11762660_at / Fold change /veh 11762660_at / RFU VCAN (11757783_s_at) / Fold change /veh VCAN (11757783_s_at) / RFU DDX43 (11728927_at) / Fold change /veh DDX43 (11728927_at) / RFU KRT8 (11758188_x_at) / Fold change /veh KRT8 (11758188_x_at) / RFU NKD1 (11759106_at) / Fold change /veh NKD1 (11759106_at) / RFU SRD5A1 (11742802_a_at) / Fold change /veh SRD5A1 (11742802_a_at) / RFU TPSAB1 /// TPSB2 (11721975_s_at) / Fold change /veh TPSAB1 /// TPSB2 (11721975_s_at) / RFU GSTM3 (11746129_a_at) / Fold change /veh GSTM3 (11746129_a_at) / RFU IL23R (11737362_x_at) / Fold change /veh IL23R (11737362_x_at) / RFU TMEM51 (11727254_a_at) / Fold change /veh TMEM51 (11727254_a_at) / RFU PIWIL2 (11732686_x_at) / Fold change /veh PIWIL2 (11732686_x_at) / RFU ORM1 (11744905_x_at) / Fold change /veh ORM1 (11744905_x_at) / RFU CCDC152 (11743942_at) / Fold change /veh CCDC152 (11743942_at) / RFU ECM1 (11717891_a_at) / Fold change /veh ECM1 (11717891_a_at) / RFU IL23R (11748794_a_at) / Fold change /veh IL23R (11748794_a_at) / RFU TNFAIP8L3 (11732012_x_at) / Fold change /veh TNFAIP8L3 (11732012_x_at) / RFU MBOAT4 (11741988_at) / Fold change /veh MBOAT4 (11741988_at) / RFU 11764193_at / Fold change /veh 11764193_at / RFU TMEM53 (11763286_at) / Fold change /veh TMEM53 (11763286_at) / RFU MAGEB2 (11727129_at) / Fold change /veh MAGEB2 (11727129_at) / RFU TMEM200A (11744735_a_at) / Fold change /veh TMEM200A (11744735_a_at) / RFU CCDC152 (11751479_a_at) / Fold change /veh CCDC152 (11751479_a_at) / RFU FAM211A (11726209_a_at) / Fold change /veh FAM211A (11726209_a_at) / RFU RGS16 (11746705_a_at) / Fold change /veh RGS16 (11746705_a_at) / RFU VCAN (11755009_s_at) / Fold change /veh VCAN (11755009_s_at) / RFU RHOB (11743442_s_at) / Fold change /veh RHOB (11743442_s_at) / RFU RGS16 (11720943_a_at) / Fold change /veh RGS16 (11720943_a_at) / RFU RGS16 (11720944_at) / Fold change /veh RGS16 (11720944_at) / RFU, VPS4B / Fold change vs veh, VPS4B / RFU, CREB1 / Fold change vs veh, CREB1 / RFU, DNAJC13 / Fold change vs veh, DNAJC13 / RFU, GNAQ / Fold change vs veh, GNAQ / RFU, CDK5R1 / Fold change vs veh, CDK5R1 / RFU, ZRANB3 / Fold change vs veh, ZRANB3 / RFU, CUL4A / Fold change vs veh, CUL4A / RFU, CCNY / Fold change vs veh, CCNY / RFU, UFL1 / Fold change vs veh, UFL1 / RFU, COG3 / Fold change vs veh, COG3 / RFU, DIAPH2 / Fold change vs veh, DIAPH2 / RFU, SKA2 / Fold change vs veh, SKA2 / RFU, AFF3 / Fold change vs veh, AFF3 / RFU, LMF1 / Fold change vs veh, LMF1 / RFU, IPO11 / Fold change vs veh, IPO11 / RFU, DFFB / Fold change vs veh, DFFB / RFU, FOXP1 / Fold change vs veh, FOXP1 / RFU, CARD8 / Fold change vs veh, CARD8 / RFU, STRN3 / Fold change vs veh, STRN3 / RFU, ADK / Fold change vs veh, ADK / RFU, RASSF2 / Fold change vs veh, RASSF2 / RFU, WIPF1 / Fold change vs veh, WIPF1 / RFU, LARP1B / Fold change vs veh, LARP1B / RFU, RASA1 / Fold change vs veh, RASA1 / RFU, RB1 / Fold change vs veh, RB1 / RFU, PPFIA1 / Fold change vs veh, PPFIA1 / RFU, MAT2A / Fold change vs veh, MAT2A / RFU, CCT5 / Fold change vs veh, CCT5 / RFU, WDR92 / Fold change vs veh, WDR92 / RFU, CUX1 / Fold change vs veh, CUX1 / RFU, TTC7A / Fold change vs veh, TTC7A / RFU, TMEM135 / Fold change vs veh, TMEM135 / RFU, DEPTOR / Fold change vs veh, DEPTOR / RFU, CPM / Fold change vs veh, CPM / RFU, DNAJB6 / Fold change vs veh, DNAJB6 / RFU, CACNA2D3 / Fold change vs veh, CACNA2D3 / RFU, DTX4 / Fold change vs veh, DTX4 / RFU, TFCP2 / Fold change vs veh, TFCP2 / RFU, GMCL1 /// GMCL1P1 / Fold change vs veh, GMCL1 /// GMCL1P1 / RFU, AEBP2 / Fold change vs veh, AEBP2 / RFU, SNHG1 /// SNORD22 /// SNORD25 /// SNORD26 /// SNORD27 /// SNORD28 /// SNORD29 /// SNORD31 / Fold change vs veh, SNHG1 /// SNORD22 /// SNORD25 /// SNORD26 /// SNORD27 /// SNORD28 /// SNORD29 /// SNORD31 / Fold change (Aza/veh), C12orf56 (ProbeSet 11735607_a_at) / Fold change (ACY-1035/veh), C12orf56 (ProbeSet 11735607_a_at) / Fold change (Aza/veh), FGFR1OP (ProbeSet 11751329_s_at) / Fold change (ACY-1035/veh), FGFR1OP (ProbeSet 11751329_s_at) / Fold change (Aza/veh), VPS36 (ProbeSet 11739960_a_at) / Fold change (ACY-1035/veh), VPS36 (ProbeSet 11739960_a_at) / RFU SYPL1 (11715823_x_at) / Fold change /veh SYPL1 (11715823_x_at) / RFU IGFBP7 (11715501_s_at) / Fold change /veh IGFBP7 (11715501_s_at) / RFU REEP3 (11722064_at) / Fold change /veh REEP3 (11722064_at) / RFU IGLL1 (11728026_x_at) / Fold change /veh IGLL1 (11728026_x_at): dose or concentration left out as unconfirmed. The note with it: ProbeSet 11734937_a_at; LIST B.

As to `Nc1ncn([C@@H]2O[C@H](CO)[C@@H](O)[C@H]2O)c(=O)n1` [azacitidine], the “Fold change vs veh, CNOT2” value is recorded as 0.93.
